The subject of assay [1] is T cells from luciferase+C57/BL6 mice. Kind of assay: T cell proliferation in short-term culture with plate bound anti-CD3 antibody and IL-2. Format: cell-based. As for the experimental part:
T cells from luciferase+C57/BL6 mice were harvested and cultured in 96-well plate with 1 μg/ml anti-CD3 antibody and 30 U/ml IL-2 in the presence of original VIPhyb, Ant-1, Ant-2, Ant-3, Ant-4, Ant-5, Ant-6, Ant-7 or Ant-8 at 1 μM.
T cells from luciferase+C57/BL6 mice were harvested and cultured in 96-well plate with either 0.5 μg/ml or 1 μg/ml anti-CD3 antibody and 30 U/ml IL-2 in the presence of original VIPhyb or Ant-8 at 0.5 μM, 1 μM or 3 μM.
The peptides (SEQ ID NO: 3-10 in FIG. 1) were added to short-term cultures of luciferase positive T-cells cultured in the presence of plate bound anti CD3 antibody in 96 well plates. The concentration of anti-CD3 antibody was either 0.5 mcg per ml or 1 mcg per ml. The T-cells from luciferase transgenic mice were added in the presence of low-dose IL-2 and 0.5 micromolar, 1 micromolar, or 3 micromolar concentrations of the original VIPhyb peptide or the alternative ANT-1 to ANT-8 peptide sequences were added.

The test system of assay [2] is T cells from Chronic lymphocytic leukemia (CLL) donors. Kind of assay: Ex vivo expansion of T cells with anti-CD3/28 beads and IL-2. In kind it is cell-based. The note with it: anti-CD3/28 beads and 30 U/mL IL-2.
The test system of assay [3] is acute leukemia. As to conditions: Oncoimmunology, 2017, 6(5):e1304336; cited from earlier work.

With “KPRRPYTDNYTRLRKQMAVKKYLNLILN [ANT-8, VIPhyb variant with S to L substitution at position 25]”, in assay [1] (lower anti-CD3 concentration (0.5 mcg per ml), compared to control cultures with plate bound anti-CD3 and no added peptides), the “T-cell proliferation using lower concentrations of anti-CD3” value is “more modest and not significantly different from control cultures”. For the same sequence, the “antagonist activity compared to the native VIPhyb” value in assay [1] (overall conclusion from the T-cell proliferation cultures) is reported as “improved antagonist activity”. Moreover, the “T-cell proliferation at 24 hours” value in assay [1] (peptide at 0.5, 1 and 3 micromolar, compared to the original VIPhyb peptide at the same concentrations) is given as “enhanced T-cell proliferation”. For the same sequence, the “yields of T cells during ex vivo expansion” value in assay [2] was “enhance yields of T cells”.

On to “KPRRPYTDNYTRLRKQMAVKKYLNSILN [VIPhyb, chimeric peptide VIP antagonist; six N-terminal amino acids of native VIP replaced]”, for which, in assay [3], the “autologous anti-leukemia T cell response” value is on record as “enhances the autologous anti-leukemia T cell response”.

The record behind these values is patent US12098180B2, “Compositions and uses of vasoactive intestinal peptide (VIP) antagonists” (EMORY UNIVERSITY, priority 2018, dated 2024).
